In ChEMBL document CHEMBL4373743, “Selective apoptosis-inducing activity of synthetic hydrocarbon-stapled SOS1 helix with d-amino acids in H358 cancer cells expressing KRASG12C” (Eur J Med Chem, 2020):
Calls of active or inactive are those of the source. No cut-off for these calls is given here. Bridge positions count the residues as written; N and C are the ends. Square brackets hold non-standard residues; d marks the D form. Peptide text beside a SMILES is read from it. S5 = C=CCCC[C@](C)(N)C(=O)O

Columns and labels:
[1] = system: NCI-H358; assay: Induction of apoptosis in human NCI-H358 cells harboring KRAS G12C mutant assessed as necrotic cells at 2.5 uM incubated for 24 hrs by Annexin V-FITC/PI staining based flow cytometric analysis (reference value: 0.28%); assay type: functional
[2] = system: NCI-H358; assay: Induction of apoptosis in human NCI-H358 cells harboring KRAS G12C mutant assessed as viable cells at 20 uM incubated for 24 hrs by Annexin V-FITC/PI staining based flow cytometric analysis (reference value: 67.2%); assay type: functional; conditions: NCI-H358, 24 h, read-out: Activity
[3] = system: A549; assay: Induction of cell cycle arrest in human A549 cells harboring KRAS G12S mutant assessed as as reduction in cyclin B1 protein expression at 40 uM incubated for 24 hrs by Western blot analysis; assay type: functional, cell-based
[4] = system: NCI-H358; assay: Induction of apoptosis in human NCI-H358 cells harboring KRAS G12C mutant assessed as early apoptotic cells at 2.5 uM incubated for 24 hrs by Annexin V-FITC/PI staining based flow cytometric analysis (reference value: 4.34%); assay type: functional
[5] = system: NCI-H358; assay: Induction of apoptosis in human NCI-H358 cells harboring KRAS G12C mutant assessed as early apoptotic cells at 20 uM incubated for 24 hrs by Annexin V-FITC/PI staining based flow cytometric analysis (reference value: 4.34%); assay type: functional
[6] = system: A549; assay: Induction of apoptosis in human A549 cells harboring KRAS G12S mutant assessed as necrotic cells at 20 uM incubated for 24 hrs by Annexin V-FITC/PI staining based flow cytometric analysis (reference value: 0.16%); assay type: functional
[7] = system: NCI-H358; assay: Induction of apoptosis in human NCI-H358 cells harboring KRAS G12C mutant incubated for 24 hrs by Annexin V-FITC/PI staining based flow cytometric analysis; assay type: functional, cell-based
[8] = system: A549; assay: Induction of apoptosis in human A549 cells harboring KRAS G12S mutant assessed as late apoptotic cells at 20 uM incubated for 24 hrs by Annexin V-FITC/PI staining based flow cytometric analysis (reference value: 25.4%); assay type: functional
[9] = system: A549; assay: Induction of apoptosis in human A549 cells harboring KRAS G12S mutant assessed as necrotic cells at 10 uM incubated for 24 hrs by Annexin V-FITC/PI staining based flow cytometric analysis (reference value: 0.16%); assay type: functional
[10] = system: NCI-H358; assay: Induction of cell cycle arrest in human NCI-H358 cells harboring KRAS G12C mutant assessed as accumulation at G2/M phase at 10 to 40 uM incubated for 24 hrs by PI staining based flow cytometric analysis (reference value: 11.08%); assay type: functional
[11] = system: A549; assay: Induction of apoptosis in human A549 cells harboring KRAS G12S mutant assessed as viable cells at 2.5 uM incubated for 24 hrs by Annexin V-FITC/PI staining based flow cytometric analysis (reference value: 68.3%); assay type: functional; conditions: A549, 24 h, read-out: Activity
[12] = system: A549; assay: Induction of apoptosis in human A549 cells harboring KRAS G12S mutant assessed as increase in bax protein level at 40 uM incubated for 24 hrs by Western blot analysis; assay type: functional, cell-based
[13] = system: NCI-H358; assay: Induction of apoptosis in human NCI-H358 cells harboring KRAS G12C mutant assessed as viable cells at 10 uM incubated for 24 hrs by Annexin V-FITC/PI staining based flow cytometric analysis (reference value: 67.2%); assay type: functional; conditions: NCI-H358, 24 h, read-out: Activity
[14] = system: NCI-H358; assay: Induction of apoptosis in human NCI-H358 cells harboring KRAS G12C mutant assessed as late apoptotic cells at 2.5 uM incubated for 24 hrs by Annexin V-FITC/PI staining based flow cytometric analysis (reference value: 28.2%); assay type: functional
[15] = system: NCI-H358; assay: Induction of apoptosis in human NCI-H358 cells harboring KRAS G12C mutant assessed as late apoptotic cells at 10 uM incubated for 24 hrs by Annexin V-FITC/PI staining based flow cytometric analysis (reference value: 28.2%); assay type: functional
[16] = system: NCI-H358; assay: Induction of apoptosis in human NCI-H358 cells harboring KRAS G12C mutant assessed as necrotic cells at 20 uM incubated for 24 hrs by Annexin V-FITC/PI staining based flow cytometric analysis (reference value: 0.28%); assay type: functional
[17] = system: NCI-H358; assay: Antiproliferative activity against human NCI-H358 cells harboring KRAS G12C mutant incubated for 24 hrs by MTT assay; assay type: functional, cell-based
[18] = system: A549; assay: Antiproliferative activity against human A549 cells harboring KRAS G12S mutant at 0.37 to 10 uM incubated for 24 hrs by MTT assay; assay type: functional, cell-based
[19] = system: GTPase KRas (Homo sapiens), P01116 [G12C]; assay: Binding affinity to biotinylated N-terminal His6-tagged recombinant KRAS G12C mutant (unknown origin) assessed as association constant by BLI method
GTPase KRas (Homo sapiens), P01116 [G12C], sequence (P01116 whole entry G12C): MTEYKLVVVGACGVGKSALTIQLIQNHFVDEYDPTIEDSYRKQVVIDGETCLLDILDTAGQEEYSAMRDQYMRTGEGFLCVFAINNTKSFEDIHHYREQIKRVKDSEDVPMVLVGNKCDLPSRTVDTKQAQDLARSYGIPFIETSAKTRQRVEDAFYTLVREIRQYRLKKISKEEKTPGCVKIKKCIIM

[20] = system: A549; assay: Induction of apoptosis in human A549 cells harboring KRAS G12S mutant assessed as early apoptotic cells at 2.5 uM incubated for 24 hrs by Annexin V-FITC/PI staining based flow cytometric analysis (reference value: 6.09%); assay type: functional
[21] = system: A549; assay: Induction of apoptosis in human A549 cells harboring KRAS G12S mutant assessed as late apoptotic cells at 10 uM incubated for 24 hrs by Annexin V-FITC/PI staining based flow cytometric analysis (reference value: 25.4%); assay type: functional
[22] = system: NCI-H358; assay: Induction of apoptosis in human NCI-H358 cells harboring KRAS G12C mutant assessed as decrease in bcl2 protein level at 40 uM incubated for 24 hrs by Western blot analysis; assay type: functional, cell-based
[23] = system: A549; assay: Induction of apoptosis in human A549 cells harboring KRAS G12S mutant assessed as early apoptotic cells at 10 uM incubated for 24 hrs by Annexin V-FITC/PI staining based flow cytometric analysis (reference value: 6.09%); assay type: functional
[24] = system: NCI-H358; assay: Induction of apoptosis in human NCI-H358 cells harboring KRAS G12C mutant assessed as late apoptotic cells at 20 uM incubated for 24 hrs by Annexin V-FITC/PI staining based flow cytometric analysis (reference value: 28.2%); assay type: functional
[25] = system: NCI-H358; assay: Induction of apoptosis in human NCI-H358 cells harboring KRAS G12C mutant assessed as early apoptotic cells at 10 uM incubated for 24 hrs by Annexin V-FITC/PI staining based flow cytometric analysis (reference value: 4.34%); assay type: functional
[26] = system: A549; assay: Induction of cell cycle arrest in human A549 cells harboring KRAS G12S mutant assessed as reduction in CDK1 protein expression at 40 uM incubated for 24 hrs by Western blot analysis; assay type: functional, cell-based
[27] = system: A549; assay: Induction of apoptosis in human A549 cells harboring KRAS G12S mutant assessed as early apoptotic cells at 20 uM incubated for 24 hrs by Annexin V-FITC/PI staining based flow cytometric analysis (reference value: 6.09%); assay type: functional
[28] = system: A549; assay: Induction of apoptosis in human A549 cells harboring KRAS G12S mutant assessed as viable cells at 20 uM incubated for 24 hrs by Annexin V-FITC/PI staining based flow cytometric analysis (reference value: 68.3%); assay type: functional; conditions: A549, 24 h, read-out: Activity
[29] = system: A549; assay: Induction of apoptosis in human A549 cells harboring KRAS G12S mutant assessed as viable cells at 10 uM incubated for 24 hrs by Annexin V-FITC/PI staining based flow cytometric analysis (reference value: 68.3%); assay type: functional; conditions: A549, 24 h, read-out: Activity
[30] = target: GTPase KRas (Homo sapiens, UniProt P01116, G12C); assay: Binding affinity to biotinylated N-terminal His6-tagged recombinant KRAS G12C mutant (unknown origin) by BLI method
GTPase KRas, sequence (P01116 whole entry G12C): as above

CC[C@H](C)[C@H](NC(=O)CNC(=O)[C@H](Cc1ccccc1)NC(=O)[C@H](Cc1ccccc1)NC(=O)[C@H](CCCNC(=N)N)NC(=O)[C@H](CCCNC(=N)N)NC(C)=O)C(=O)N[C@@]1(C)CCC/C=C\CCC[C@@](C)(C(=O)N[C@@H](CC(C)C)C(=O)N[C@@H](CCCCN)C(=O)N[C@H](C(=O)N[C@@H](CCC(=O)O)C(=O)N[C@@H](CCC(=O)O)C(=O)NCC(=O)N[C@@H](CC(N)=O)C(=O)O)[C@@H](C)O)NC(=O)[C@H](CC(N)=O)NC(=O)[C@H](CC(=O)O)NC(=O)[C@H]([C@@H](C)O)NC(=O)[C@H](CC(C)C)NC(=O)[C@H](CC(=O)O)NC1=O (Ac-RRFFGI[S5]DLTDN[S5]LKTEEGN-OH; staple (Z) 7-13)
Activity [1]: 0.14% | viability at 20 µM [2]: 46.7% | Activity [3]: inactive | Activity [4]: 4.22% | Activity [5]: 6.49% | Activity [6]: 0.33% | Activity [7]: Dose-dependent effect | Activity [8]: 30.7% | Activity [9]: 0.5% | Activity [10]: 34.4% | viability at 2.5 µM [11]: 60.4% | Activity [12]: inactive | viability at 10 µM [13]: 52.5% | Activity [14]: 33% | Activity [15]: 40.8% | Activity [16]: 0.21% | Activity [17]: Dose-dependent effect | Activity [18]: inactive | Ka [19]: 7.3 ×10³ /M.s | Activity [20]: 2.65% | Activity [21]: 30.1% | Activity [22]: Active | Activity [23]: 1.79% | Activity [24]: 46.6% | Activity [25]: 6.37% | Activity [26]: inactive | Activity [27]: 1.68% | viability at 20 µM [28]: 67.3% | viability at 10 µM [29]: 67.6% | Kd [30]: 870 nM
